Laboratory results as given in ChEMBL document CHEMBL1201862, “PubChem BioAssay data set” (2004).
Calls of active or inactive are those of the source. Rule as the data show it: actives have a measured IC50 and inactives only a lower limit.

Target: Envelope glycoprotein gp160 (Human immunodeficiency virus 1, UniProt Q6QLK5)
Test: inhibitors of HIV fusion peptide binding, primary screen, biochemical, uHTS, fluorescence dequenching (AID 1986)

Chain of Envelope glycoprotein gp160 (Q6QLK5 whole entry, the tested form may be a part): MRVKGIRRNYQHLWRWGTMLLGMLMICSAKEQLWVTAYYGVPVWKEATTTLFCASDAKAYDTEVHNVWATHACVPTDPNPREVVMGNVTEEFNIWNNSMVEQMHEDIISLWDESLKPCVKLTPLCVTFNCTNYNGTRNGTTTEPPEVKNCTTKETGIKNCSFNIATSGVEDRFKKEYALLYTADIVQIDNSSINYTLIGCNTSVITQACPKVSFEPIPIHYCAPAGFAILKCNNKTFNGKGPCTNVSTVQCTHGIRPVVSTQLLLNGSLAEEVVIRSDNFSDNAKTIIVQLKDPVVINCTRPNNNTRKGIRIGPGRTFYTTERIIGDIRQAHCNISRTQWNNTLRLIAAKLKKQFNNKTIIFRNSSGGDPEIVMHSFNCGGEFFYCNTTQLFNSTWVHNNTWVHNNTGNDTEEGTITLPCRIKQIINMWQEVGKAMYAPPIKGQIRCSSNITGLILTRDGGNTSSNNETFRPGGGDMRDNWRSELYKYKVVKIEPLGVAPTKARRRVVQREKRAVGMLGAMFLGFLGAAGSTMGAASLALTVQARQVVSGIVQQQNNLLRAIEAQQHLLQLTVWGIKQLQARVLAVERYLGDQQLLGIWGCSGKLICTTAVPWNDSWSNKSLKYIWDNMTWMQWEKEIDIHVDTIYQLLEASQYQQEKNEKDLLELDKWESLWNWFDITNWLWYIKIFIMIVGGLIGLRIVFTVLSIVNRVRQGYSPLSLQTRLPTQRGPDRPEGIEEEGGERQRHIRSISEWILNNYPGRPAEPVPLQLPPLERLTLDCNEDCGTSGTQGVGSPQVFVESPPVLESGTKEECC

| Structure (SMILES) | IC50 |
| --- | --- |
| COc1cccc(-c2nc(SCC(=O)Nc3nc(-c4ccccc4)c(C)s3)[nH]c(=O)c2C#N)c1 | 10.3 µM (active) |
| O=C(O)CSc1nc(-c2ccc(Cl)cc2)nc2c1oc1ccccc12 | 15.4 µM (active) |
